Data published in PubChem BioAssay AID248 (DTP/NCI, 2004).
Several values for one entry are separate records, joined by “and”; a condition that tells them apart may be missing. Identical values can stand only once. Inconclusive results and toxic doses are left out.

System: L1210 leukemia ip in BDF1 mice, survival T/C
Assay: NCI In Vivo Anticancer Drug Screen. Data for tumor model L1210 Leukemia (intraperitoneal) in B6D2F1 (BDF1) mice
Settings: endpoint: mean survival time, higher = longer survival
Method in brief: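 Each compound was tested against a transplantable tumor grown in mice. The endpoint was survival, with treated animals benchmarked against vehicle controls as a simple ratio.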

[1] = dose: 100.0 mg/kg/injection, schedule: Q01DX001 (ip), vehicle: saline
[2] = dose: 200.0 mg/kg/injection, schedule: Q01DX001 (ip), vehicle: saline
[3] = dose: 400.0 mg/kg/injection, schedule: Q01DX001 (ip), vehicle: saline
[4] = dose: 100.0 mg/kg/injection, schedule: Q04DX003 (ip), vehicle: Klucel (hydroxypropylcellulose) (HPC)
[5] = dose: 200.0 mg/kg/injection, schedule: Q04DX003 (ip), vehicle: Klucel (hydroxypropylcellulose) (HPC)
[6] = dose: 400.0 mg/kg/injection, schedule: Q04DX003 (ip), vehicle: Klucel (hydroxypropylcellulose) (HPC)
[7] = dose: 100.0 mg/kg/injection, schedule: Q04DX003 (ip), vehicle: saline with Tween-80
[8] = dose: 200.0 mg/kg/injection, schedule: Q04DX003 (ip), vehicle: saline with Tween-80
[9] = dose: 400.0 mg/kg/injection, schedule: Q04DX003 (ip), vehicle: saline with Tween-80
[10] = dose: 100.0 mg/kg/injection, schedule: Q01DX001 (ip), vehicle: other
[11] = dose: 200.0 mg/kg/injection, schedule: Q01DX001 (ip), vehicle: other
[12] = dose: 400.0 mg/kg/injection, schedule: Q01DX001 (ip), vehicle: other
[13] = dose: 37.5 mg/kg/injection, schedule: Q04DX003 (ip), vehicle: saline

CCOC(=O)CCN(Cc1ccccc1)C(COC)C(=O)OCC (centres undefined)
T/C [1]: 97 % of control | T/C [2]: 90 % of control | T/C [3]: 101 % of control

O=c1c2ccccc2ncn1CCCBr
T/C (dose: 75.0 mg/kg/injection, schedule: Q01DX009 (ip), vehicle: saline): 95 % of control | T/C (dose: 150.0 mg/kg/injection, schedule: Q01DX009 (ip), vehicle: saline): 103 % of control | T/C (dose: 300.0 mg/kg/injection, schedule: Q01DX009 (ip), vehicle: saline): 95 % of control

COc1ccc(Br)c(CCC(C)C)c1O
T/C (dose: 100.0 mg/kg/injection, schedule: Q01DX009 (ip), vehicle: Klucel (hydroxypropylcellulose) (HPC)): 110 % of control | T/C [4]: 108 % of control | T/C (dose: 200.0 mg/kg/injection, schedule: Q01DX009 (ip), vehicle: Klucel (hydroxypropylcellulose) (HPC)): 95 % of control | T/C [5]: 103 % of control | T/C (dose: 400.0 mg/kg/injection, schedule: Q01DX009 (ip), vehicle: Klucel (hydroxypropylcellulose) (HPC)): 89 % of control | T/C [6]: 101 % of control

C=C(C)COc1c(C)cc(C)cc1C=Nc1ccccc1
T/C [7]: 109 % of control | T/C [8]: 106 % of control | T/C [9]: 105 % of control

O=C(Nc1cccnc1)Nc1ccc(Cl)c(Cl)c1
T/C [4]: 98 % of control | T/C [5]: 93 % of control | T/C [6]: 94 % of control

Cc1cccc2cccnc12
T/C [10]: 104 % of control | T/C [11]: 106 % of control | T/C [12]: 98 % of control

CN1C(=O)NC(C)(C)C1=O
T/C [1]: 99 % of control | T/C [2]: 97 % of control | T/C [3]: 94 % of control

CCCNC(C)(C)C(SS)c1ccc(C(F)(F)F)cc1 (centres undefined)
T/C (dose: 12.5 mg/kg/injection, schedule: Q01DX009 (ip), vehicle: other): 89 % of control | T/C (dose: 12.5 mg/kg/injection, schedule: Q04DX003 (ip), vehicle: other): 94 % of control | T/C (dose: 25.0 mg/kg/injection, schedule: Q01DX009 (ip), vehicle: other): 95 % of control | T/C (dose: 25.0 mg/kg/injection, schedule: Q04DX003 (ip), vehicle: other): 96 % of control | T/C (dose: 50.0 mg/kg/injection, schedule: Q01DX009 (ip), vehicle: other): 95 % of control | T/C (dose: 50.0 mg/kg/injection, schedule: Q04DX003 (ip), vehicle: other): 89 % of control

O=C(O)/C=C\C(=O)Nc1ccc(Cc2ccc(NC(=O)/C=C\C(=O)O)cc2)cc1
T/C [1]: 115 % of control | T/C [4]: 95 % of control | T/C [2]: 103 % of control | T/C [5]: 100 % of control | T/C [3]: 103 % of control | T/C [6]: 97 % of control

O=C(CCN1CC1)OCCOC(=O)CCN1CC1
T/C (dose: 7.1 mg/kg/injection, schedule: Q01DX Z (ip), vehicle: methylcellulose (MC)): 97 % of control | T/C (dose: 7.2 mg/kg/injection, schedule: Q01DX005 (ip), vehicle: saline): 121 % of control | T/C (dose: 10.6 mg/kg/injection, schedule: Q01DX Z (ip), vehicle: methylcellulose (MC)): 113 % of control | T/C (dose: 12.5 mg/kg/injection, schedule: Q04DX003 (ip), vehicle: acetone): 109 % of control | T/C (dose: 16.0 mg/kg/injection, schedule: Q01DX Z (ip), vehicle: methylcellulose (MC)): 113 % of control and 120 % of control | T/C (dose: 16.5 mg/kg/injection, schedule: Q04DX003 (ip), vehicle: acetone): 101 % of control | T/C (dose: 16.5 mg/kg/injection, schedule: Q04DX003 (ip), vehicle: saline): 110 % of control | T/C (dose: 22.0 mg/kg/injection, schedule: Q01DX001 (ip), vehicle: saline): 122 % of control | T/C (dose: 24.0 mg/kg/injection, schedule: Q01DX Z (ip), vehicle: methylcellulose (MC)): 98 % of control and 103 % of control | T/C (dose: 25.0 mg/kg/injection, schedule: Q01DX009 (ip), vehicle: acetone): 150 % of control | T/C (dose: 25.0 mg/kg/injection, schedule: Q04DX003 (ip), vehicle: acetone): 103 % of control | T/C (dose: 37.5 mg/kg/injection, schedule: Q01DX009 (ip), vehicle: acetone): 160 % of control | T/C (dose: 37.5 mg/kg/injection, schedule: Q04DX003 (ip), vehicle: acetone): 106 % of control | T/C [13]: 105 % of control | T/C (dose: 50.0 mg/kg/injection, schedule: Q04DX003 (ip), vehicle: acetone): 124 % of control | T/C (dose: 55.0 mg/kg/injection, schedule: Q01DX005 (ip), vehicle: saline): 155 % of control

CN(C)C(=S)SC(=S)N(C)C
T/C (dose: 25.0 mg/kg/injection, schedule: Q04DX002 (ip), vehicle: Klucel (hydroxypropylcellulose) (HPC)): 106 % of control | T/C (dose: 50.0 mg/kg/injection, schedule: Q04DX002 (ip), vehicle: Klucel (hydroxypropylcellulose) (HPC)): 100 % of control | T/C (dose: 100.0 mg/kg/injection, schedule: Q04DX002 (ip), vehicle: Klucel (hydroxypropylcellulose) (HPC)): 89 % of control | T/C (dose: 200.0 mg/kg/injection, schedule: Q04DX002 (ip), vehicle: Klucel (hydroxypropylcellulose) (HPC)): 91 % of control | T/C (dose: 400.0 mg/kg/injection, schedule: Q04DX002 (ip), vehicle: Klucel (hydroxypropylcellulose) (HPC)): 98 % of control

Cc1n[nH]c(=S)[nH]c1=O
T/C (dose: 50.0 mg/kg/injection, schedule: Q01DX001 (ip), vehicle: saline): 100 % of control | T/C [1]: 100 % of control | T/C [2]: 100 % of control | T/C [3]: 94 % of control

COc1ccc(NC(=O)CC(C)=O)cc1
T/C [10]: 92 % of control | T/C [7]: 94 % of control | T/C [11]: 97 % of control | T/C [8]: 100 % of control | T/C [12]: 103 % of control | T/C [9]: 99 % of control

COc1ccc2c(c1)c1c(C)c3cnccc3c(C)c1n2CC1CO1 (centres undefined)
T/C (dose: 4.7 mg/kg/injection, schedule: Q01DX009 (ip), vehicle: saline with Tween-80): 100 % of control | T/C (dose: 9.4 mg/kg/injection, schedule: Q01DX009 (ip), vehicle: saline with Tween-80): 102 % of control | T/C (dose: 18.75 mg/kg/injection, schedule: Q04DX003 (ip), vehicle: saline with Tween-80): 116 % of control | T/C [13]: 120 % of control | T/C (dose: 75.0 mg/kg/injection, schedule: Q04DX003 (ip), vehicle: saline): 91 % of control

CCC[CH2][Sn]([CH2]CCC)([CH2]CCC)[S]C(=S)NCCNC(=S)[S][Sn]([CH2]CCC)([CH2]CCC)[CH2]CCC
T/C (dose: 0.5 mg/kg/injection, schedule: Q01DX015 (ip), vehicle: carboxymethylcellulose (CMC)): 101 % of control | T/C (dose: 1.0 mg/kg/injection, schedule: Q01DX015 (ip), vehicle: carboxymethylcellulose (CMC)): 103 % of control | T/C (dose: 2.5 mg/kg/injection, schedule: Q01DX001 (ip), vehicle: saline): 108 % of control | T/C (dose: 2.5 mg/kg/injection, schedule: Q01DX015 (ip), vehicle: carboxymethylcellulose (CMC)): 110 % of control | T/C (dose: 5.0 mg/kg/injection, schedule: Q01DX001 (ip), vehicle: saline): 108 % of control | T/C (dose: 5.0 mg/kg/injection, schedule: Q01DX015 (ip), vehicle: carboxymethylcellulose (CMC)): 103 % of control | T/C (dose: 10.0 mg/kg/injection, schedule: Q01DX001 (ip), vehicle: saline): 101 % of control | T/C (dose: 10.0 mg/kg/injection, schedule: Q01DX015 (ip), vehicle: carboxymethylcellulose (CMC)): 113 % of control | T/C (dose: 20.0 mg/kg/injection, schedule: Q01DX015 (ip), vehicle: carboxymethylcellulose (CMC)): 101 % of control | T/C (dose: 30.0 micrograms/kg/injection, schedule: Q01DX015 (ip), vehicle: carboxymethylcellulose (CMC)): 106 % of control | T/C (dose: 60.0 micrograms/kg/injection, schedule: Q01DX015 (ip), vehicle: carboxymethylcellulose (CMC)): 110 % of control | T/C (dose: 120.0 micrograms/kg/injection, schedule: Q01DX015 (ip), vehicle: carboxymethylcellulose (CMC)): 102 % of control | T/C (dose: 240.0 micrograms/kg/injection, schedule: Q01DX015 (ip), vehicle: carboxymethylcellulose (CMC)): 102 % of control

N#CCCNC(=O)c1ccccc1
T/C (dose: 100.0 mg/kg/injection, schedule: Q01DX001 (ip), vehicle: acetone): 107 % of control | T/C (dose: 100.0 mg/kg/injection, schedule: Q01DX009 (ip), vehicle: acetone): 90 % of control | T/C (dose: 100.0 mg/kg/injection, schedule: Q04DX003 (ip), vehicle: saline): 103 % of control | T/C (dose: 200.0 mg/kg/injection, schedule: Q01DX001 (ip), vehicle: acetone): 102 % of control | T/C (dose: 200.0 mg/kg/injection, schedule: Q01DX009 (ip), vehicle: acetone): 92 % of control | T/C (dose: 200.0 mg/kg/injection, schedule: Q04DX003 (ip), vehicle: saline): 94 % of control | T/C (dose: 400.0 mg/kg/injection, schedule: Q01DX001 (ip), vehicle: acetone): 102 % of control | T/C (dose: 400.0 mg/kg/injection, schedule: Q01DX009 (ip), vehicle: acetone): 90 % of control | T/C (dose: 400.0 mg/kg/injection, schedule: Q04DX003 (ip), vehicle: saline): 101 % of control
